Several values for one entry are separate records, joined by “and”; a condition that tells them apart may be missing. Equal values may be shown once. Read-outs that look alike come from different tables or passages of the source.
Legend:
Neutrophils = test system: Neutrophils
Text: (§1) The experimental animals—Rattus norvegicus (Wistar strain; 8–10 weeks old; 120 ± 20 gm; males only) were acquired from Indian Institute of Integrative Medicine (IIIM-CSIR) (Jammu, India), quarantined, acclimatized and sacrificed as per standard practice conforming to the University Ethical Regulations. After acclimatization, rats were divided into five groups by stratified randomization with five animals per group. […] Distilled water was used to prepare dosing solutions of test agent and injected via intraperitoneal (i.p.) injection. At 24, 48 and 72 h post-dosing, 5 rats per duration were sacrificed and necessary tissues were isolated for different cytogenetic and molecular parameters. For CA assessment, separate experimental lot was used due to colchicine treatment.
(§2) WBCs were isolated by following the protocol of Lone et al.. Blood was collected in 0.1% EDTA from retro-orbital plexus of rat, followed by incubation for 30 min. 500 µL of blood was then added to a centrifuge tube with 1 mL FACS lysing solution. The blood was incubated for 10 min and centrifuged (2000 rpm, 10 min) at 25 °C. After discarding the supernatant, pellet was washed in 1mL FACS lysing solution followed by centrifuging at 2000 rpm for 5 min. Repeated this step twice and then pellet was put in 500 µL of PBS, leaving only WBCs.
(§3) Protocol of Majeed and colleagues was employed for flow cytometric measurements of change in Ψm. […] Leukocytes were identified via forward and side scatter.

Eosinophils = test system: Eosinophils
Text: as §1, §2, §3

bone marrow cells = details: for Total Aberrations (Mean ± SD): mean percentage; for MI (Mean ± SD): mitotic index mean percentage; for Structural Aberrations Assoc: number of associations; for Structural Aberrations Brk: number of breaks; for Structural Aberrations Del: number of deletions; for Structural Aberrations Dcn: number of dicentrics; for Structural Aberrations Frag: number of fragments; for Structural Aberrations Gp: number of gaps; for Structural Aberrations Ring: number of rings
Text: as §1
Method of Preston et al. was used for preparing the metaphase chromosomes. An aqueous solution of Colchicine (4 mg/kgbw) was injected intraperitoneally 2 h prior to sacrificing the animal. Pre-warm KCL (0.075 M) solution was used to collect the bone marrow cells followed by incubation at 37 °C for 20 min, and then centrifuge at 1000 rpm for 10 min. After fixing the pellet in cold Cornoy’s fixative dropped onto clean pre-chilled glass slide in 30% ethanol and dried in air. 5% buffered Giemsa (pH 7.0) was used for staining. Chromosomal aberrations were analyzed on properly separated metaphases and finally photographed at 100× (Olympus U—PMTV microscope), using oil immersion. The metaphase cells from approximately 1000 cells per concentration per animal both in exposed and control replicates, expressed in percentage were considered for mitotic indices (MI).

peripheral blood cells = details: for Olive Tail Moment / Tail Length (µm): Mean ± SD
Text: as §1
Detection of DNA strand break was performed according to protocol of Singh et al. with some modifications. Briefly, blood was collected using Retro-orbital bleeding during euthanasia. 10μL whole blood cells obtained were mixed with 75 µL of 0.5% LMPA and layered onto frosted slides which was pre-coated with NMA. After putting cover slip, slides were kept for 5–10min. After gelling, removed cover slip gently and added a layer of 90 μL of LMPA. After replacing the cover slip, slides were placed on the slide tray (ice packs) till the agarose layer hardened (5–10 min). Following this, removed the cover slip and by gently immersing the slides in lysis buffer embedded cells were lysed. Cells lysis was performed in cold conditions for a minimum of 2 h in lysing solution.
Alkaline conditions (pH > 13) were used to perform the electrophoresis. After lysis, slides were subjected in electrophoretic buffer at 4 °C for 40 min to achieve the DNA denaturation that allow the DNA unwinding and the expression of alkali labile site. Electrophoresis was then carried out at 0.74 V/cm for 40 min (300 mA; 24 volts) at 4 °C by raising or lowering buffer. Thereafter, neutralization buffer (0.4 M Tris, 10 M HCl; pH = 7.5) were employed to wash the slides. Slides were stained by 80 μL of 1× Ethidium Bromide and excess stain was removed by dipping in chilled distilled water. Slides were examined at 40× magnification under fluorescence microscope coupled with a charge coupled device camera (Olympus).

Platelets = details: 72 h treatment

SMILES: CNC(=O)CSP(=S)(OC)OC [DM, 0,0- Dimethyl S-(N-methylcarbamoylmethyl) phosphorodithiote]
- MMP loss (membrane potential loss) (Neutrophils; neutrophils, 72 h treatment): greater than 90%
- maximum MMP loss (Neutrophils; neutrophils, initial exposure time): greater than 30%
- MMP loss in neutrophils (Neutrophils; range over increased DM doses, initial exposure time): 2–40%
- MMP loss (Eosinophils; 48 h exposure period (Figure 8)): around 30%
- MMP loss (membrane potential loss) (Eosinophils; 72 h treatment): greater than 90%
- Total Aberrations (Mean ± SD) (bone marrow cells; 20 mg/kgbw, 24 h): 5.66 ± 1.03 **^,a %
- Total Aberrations (Mean ± SD) (bone marrow cells; 20 mg/kgbw, 48 h): 5.33 ± 1.43 **^,a %
- Total Aberrations (Mean ± SD) (bone marrow cells; 20 mg/kgbw, 72 h): 2.17 ± 0.83 *^,a %
- Total Aberrations (Mean ± SD) (bone marrow cells; 40 mg/kgbw, 24 h): 5.83 ± 1.69 **^,a %
- Total Aberrations (Mean ± SD) (bone marrow cells; 40 mg/kgbw, 48 h): 5.16 ± 1.74 **^,a %
- Total Aberrations (Mean ± SD) (bone marrow cells; 40 mg/kgbw, 72 h): 2.67 ± 0.75 *^,a %
- Total Aberrations (Mean ± SD) (bone marrow cells; 60 mg/kgbw, 24 h): 7.50 ± 1.15% and 7.50 ± 1.15 **^,a,*^,b %
- Total Aberrations (Mean ± SD) (bone marrow cells; 60 mg/kgbw, 48 h): 6.83 ± 1.90 **^,a %
- Total Aberrations (Mean ± SD) (bone marrow cells; 60 mg/kgbw, 72 h): 3.16 ± 0.71 *^,a %
- MI (Mean ± SD) (bone marrow cells; 20 mg/kgbw, 24 h): 2.19 ± 0.21 *^,a %
- MI (Mean ± SD) (bone marrow cells; 20 mg/kgbw, 48 h): 2.04 ± 0.15 *^,a %
- MI (Mean ± SD) (bone marrow cells; 20 mg/kgbw, 72 h): 2.07 ± 0.10 *^,a %
- MI (Mean ± SD) (bone marrow cells; 40 mg/kgbw, 24 h): 2.16 ± 0.16 *^,a %
- MI (Mean ± SD) (bone marrow cells; 40 mg/kgbw, 48 h): 1.98 ± 0.08 *^,a %
- MI (Mean ± SD) (bone marrow cells; 40 mg/kgbw, 72 h): 2.05 ± 0.14 *^,a %
- MI (Mean ± SD) (bone marrow cells; 60 mg/kgbw, 24 h): 1.92 ± 0.61 *^,a %
- MI (Mean ± SD) (bone marrow cells; 60 mg/kgbw, 48 h): 1.97 ± 0.12 *^,a %
- MI (Mean ± SD) (bone marrow cells; 60 mg/kgbw, 72 h): 1.95 ± 0.04 *^,a %
- Structural Aberrations Assoc (bone marrow cells; 20 mg/kgbw, 24 h): 4
- Structural Aberrations Assoc (bone marrow cells; 20 mg/kgbw, 48 h): 5
- Structural Aberrations Assoc (bone marrow cells; 20 mg/kgbw, 72 h): 0
- Structural Aberrations Assoc (bone marrow cells; 40 mg/kgbw, 24 h): 6
- Structural Aberrations Assoc (bone marrow cells; 40 mg/kgbw, 48 h): 6
- Structural Aberrations Assoc (bone marrow cells; 40 mg/kgbw, 72 h): 1
- Structural Aberrations Assoc (bone marrow cells; 60 mg/kgbw, 24 h): 4
- Structural Aberrations Assoc (bone marrow cells; 60 mg/kgbw, 48 h): 7
- Structural Aberrations Assoc (bone marrow cells; 60 mg/kgbw, 72 h): 1
- Structural Aberrations Brk (bone marrow cells; 20 mg/kgbw, 24 h): 2
- Structural Aberrations Brk (bone marrow cells; 20 mg/kgbw, 48 h): 9
- Structural Aberrations Brk (bone marrow cells; 20 mg/kgbw, 72 h): 2
- Structural Aberrations Brk (bone marrow cells; 40 mg/kgbw, 24 h): 4
- Structural Aberrations Brk (bone marrow cells; 40 mg/kgbw, 48 h): 3
- Structural Aberrations Brk (bone marrow cells; 40 mg/kgbw, 72 h): 5
- Structural Aberrations Brk (bone marrow cells; 60 mg/kgbw, 24 h): 6
- Structural Aberrations Brk (bone marrow cells; 60 mg/kgbw, 48 h): 7
- Structural Aberrations Brk (bone marrow cells; 60 mg/kgbw, 72 h): 8
- Structural Aberrations Del (bone marrow cells; 20 mg/kgbw, 24 h): 4
- Structural Aberrations Del (bone marrow cells; 20 mg/kgbw, 48 h): 5
- Structural Aberrations Del (bone marrow cells; 20 mg/kgbw, 72 h): 4
- Structural Aberrations Del (bone marrow cells; 40 mg/kgbw, 24 h): 4
- Structural Aberrations Del (bone marrow cells; 40 mg/kgbw, 48 h): 4
- Structural Aberrations Del (bone marrow cells; 40 mg/kgbw, 72 h): 2
- Structural Aberrations Del (bone marrow cells; 60 mg/kgbw, 24 h): 6
- Structural Aberrations Del (bone marrow cells; 60 mg/kgbw, 48 h): 5
- Structural Aberrations Del (bone marrow cells; 60 mg/kgbw, 72 h): 3
- Structural Aberrations Dcn (bone marrow cells; 20 mg/kgbw, 24 h): 8
- Structural Aberrations Dcn (bone marrow cells; 20 mg/kgbw, 48 h): 3
- Structural Aberrations Dcn (bone marrow cells; 20 mg/kgbw, 72 h): 2
- Structural Aberrations Dcn (bone marrow cells; 40 mg/kgbw, 24 h): 12
- Structural Aberrations Dcn (bone marrow cells; 40 mg/kgbw, 48 h): 8
- Structural Aberrations Dcn (bone marrow cells; 40 mg/kgbw, 72 h): 2
- Structural Aberrations Dcn (bone marrow cells; 60 mg/kgbw, 24 h): 10
- Structural Aberrations Dcn (bone marrow cells; 60 mg/kgbw, 48 h): 7
- Structural Aberrations Dcn (bone marrow cells; 60 mg/kgbw, 72 h): 2
- Structural Aberrations Frag (bone marrow cells; 20 mg/kgbw, 24 h): 6
- Structural Aberrations Frag (bone marrow cells; 20 mg/kgbw, 48 h): 12
- Structural Aberrations Frag (bone marrow cells; 20 mg/kgbw, 72 h): 4
- Structural Aberrations Frag (bone marrow cells; 40 mg/kgbw, 24 h): 3
- Structural Aberrations Frag (bone marrow cells; 40 mg/kgbw, 48 h): 16
- Structural Aberrations Frag (bone marrow cells; 40 mg/kgbw, 72 h): 5
- Structural Aberrations Frag (bone marrow cells; 60 mg/kgbw, 24 h): 8
- Structural Aberrations Frag (bone marrow cells; 60 mg/kgbw, 48 h): 14
- Structural Aberrations Frag (bone marrow cells; 60 mg/kgbw, 72 h): 3
- Structural Aberrations Gp (bone marrow cells; 20 mg/kgbw, 24 h): 8
- Structural Aberrations Gp (bone marrow cells; 20 mg/kgbw, 48 h): 6
- Structural Aberrations Gp (bone marrow cells; 20 mg/kgbw, 72 h): 5
- Structural Aberrations Gp (bone marrow cells; 40 mg/kgbw, 24 h): 8
- Structural Aberrations Gp (bone marrow cells; 40 mg/kgbw, 48 h): 7
- Structural Aberrations Gp (bone marrow cells; 40 mg/kgbw, 72 h): 7
- Structural Aberrations Gp (bone marrow cells; 60 mg/kgbw, 24 h): 7
- Structural Aberrations Gp (bone marrow cells; 60 mg/kgbw, 48 h): 8
- Structural Aberrations Gp (bone marrow cells; 60 mg/kgbw, 72 h): 6
- Structural Aberrations Ring (bone marrow cells; 20 mg/kgbw, 24 h): 2
- Structural Aberrations Ring (bone marrow cells; 20 mg/kgbw, 48 h): 6
- Structural Aberrations Ring (bone marrow cells; 20 mg/kgbw, 72 h): 1
- Structural Aberrations Ring (bone marrow cells; 40 mg/kgbw, 24 h): 6
- Structural Aberrations Ring (bone marrow cells; 40 mg/kgbw, 48 h): 5
- Structural Aberrations Ring (bone marrow cells; 40 mg/kgbw, 72 h): 1
- Structural Aberrations Ring (bone marrow cells; 60 mg/kgbw, 24 h): 4
- Structural Aberrations Ring (bone marrow cells; 60 mg/kgbw, 48 h): 9
- Structural Aberrations Ring (bone marrow cells; 60 mg/kgbw, 72 h): 2
- Olive Tail Moment (peripheral blood cells; 20 mg/kgbw, 24 h): 5.65 ± 0.33 ***^,a
- Tail Length (µm) (peripheral blood cells; 20 mg/kgbw, 24 h): 22.44 µm and 22.44 ± 2.07 ***^,a µm
- Olive Tail Moment (peripheral blood cells; 20 mg/kgbw, 48 h): 4.01 ± 0.48 ***^,a
- Tail Length (µm) (peripheral blood cells; 20 mg/kgbw, 48 h): 19.26 ± 1.00 *^,a µm
- Olive Tail Moment (peripheral blood cells; 20 mg/kgbw, 72 h): 2.71 ± 0.31 *^,a
- Tail Length (µm) (peripheral blood cells; 20 mg/kgbw, 72 h): 16.16 ± 1.35 *^,a µm
- Tail Length (µm) (peripheral blood cells; 40 mg/kgbw, 24 h): 24.37 ± 1.66 ***^,a,b µm
- Olive Tail Moment (peripheral blood cells; 40 mg/kgbw, 48 h): 5.35 ± 0.48 ***^,a,*^,b
- Tail Length (µm) (peripheral blood cells; 40 mg/kgbw, 48 h): 25.07 ± 1.87 ***^,a,b µm
- Olive Tail Moment (peripheral blood cells; 40 mg/kgbw, 72 h): 3.13 ± 0.28 *^,a
- Tail Length (µm) (peripheral blood cells; 40 mg/kgbw, 72 h): 21.12 ± 1.45 ***^,a µm
- Tail Length (µm) (peripheral blood cells; 60 mg/kgbw, 24 h): 30.09 µm and 30.09 ± 2.86 ***^,a,b µm
- Olive Tail Moment (peripheral blood cells; 60 mg/kgbw, 48 h): 6.46 ± 0.64 ***^,a,b,c
- Tail Length (µm) (peripheral blood cells; 60 mg/kgbw, 48 h): 27.63 ± 3.12 ***^,a,c,**^,b µm
- Olive Tail Moment (peripheral blood cells; 60 mg/kgbw, 72 h): 4.84 ± 0.41 **^,a
- Tail Length (µm) (peripheral blood cells; 60 mg/kgbw, 72 h): 20.37 ± 1.59 *^,a,c µm
- increase of OTM vis-a-vis negative control (peripheral blood cells; single dose of 10 mg DM/kgbw, 24 h): ~5 fold
- MMP loss (membrane potential loss) (Platelets): greater than 90%
